In brackets after ≈: the same amount, converted by molar mass.
Experiments:
B16 F0 melanoma = B16 F0 melanoma xenograft model of C57B6J mice; assay type: in vivo; details: for dose response of tumor growth inhibition: two dose levels (50 and 100 mg/kg), intra-peritoneal
Method: […] mice of 6 weeks age (body weight 18-22 g) were purchased from National Institute of Nutrition (NIN), Hyderabad (India). Animals study protocols were approved by Institutional Ethics Committee (IAEC). All the studies were performed in compliance with the Committee for the Purpose of Control and Supervision of Experiments on Animals (CPCSEA) guidelines and OECD guidelines. Animals were allowed free access to standard feed and provided charcoal filtered and UV exposed water ad libitum. The animals were maintained at a controlled temperature (24-26° C.), humidity (45-70%), and 12 h/12 h of light/dark cycle. To induce the melanoma tumor formation, sub-confluent B16F0 cells were harvested by brief trypsinization and 1×10^6 cells were injected subcutaneously in 0.2 ml phosphate-buffered saline. Drug treatment was started after development of palpable tumors (3-5 days after implantation of the cells). […] After fourteen days of treatment, the animals were sacrificed by CO2 inhalation and tumors were excised and weighed.

[1] = tested on: MIA-PaCa2 human pancreas tumor cells; assay: MTT cell proliferation assay in MIA-PaCa2 cells; assay type: cell-based; details: MIA PaCa-2, read-out: 50% of inhibitory concentration, IC50 MIA-PaCa2
Method: (§1) MTT [3-(4,5-dimethylthiazol-2-yl)-2,5-diphenyltetrazolium bromide] incorporation based cell proliferation assay was performed using standard procedure with some modifications (38). The cytotoxic efficacy of the test compounds were evaluated in human malignant melanoma A2058 cells by MTT cell proliferation assay kit (Roche Applied Sciences, Germany). The assay was carried out according to the instruction provided by the vendor. Briefly, equal numbers of cells was plated in 96-well flat-bottomed plates in 100 μl of medium and were exposed to either DTIC or its derivative compounds at various concentrations up to 150 μg/ml for a period of three days. Vehicle control culture wells received only a maximum of 0.5% DMSO. Thereafter, 0.5 mg/ml of MTT reagent was added to each well and the microplate was incubated further for 4 h at 37° C. in presence of 5% CO2. Finally, the cells were solubilized by adding solubilizing solution and allowed to incubate at 37° C. overnight. After complete solubilization of the formazan crystals the absorbance was read at 540 nm in a microplate reader (BioRad, USA). The results (mean OD±SD) obtained from quadruplicate wells were used in calculation to determine the inhibition of cell proliferation (50% inhibitory concentration, IC50) of the test compounds.
(§2) Anti-tumor growth potential of Compound 1 and Compound 6 were evaluated in MCF-7 human breast tumor cells, MIA-PaCa2 human pancreas tumor cells and DU145 human prostate tumor cells by using MTT based cell proliferation studies as described earlier (example 19). The results (mean OD±SD) obtained from quadruplicate wells were used in calculation to determine the inhibition of cell proliferation (50% of inhibitory concentration, IC50) of the test compounds (Table 4).

[2] = tested on: A375 human melanoma cells; assay: LDH leakage cytotoxicity assay in A375 cells; assay type: cell-based; details: treatment concentration 100 μg/ml
Method: (§3) From the data obtained from the MTT assay (Table J), compound 1, compound 6 and compound 13 have been selected and their cytotoxicity potential has been further validated in LDH leakage assay. […] Cytotoxicity potential of DTIC and its derivative compounds were evaluated by measuring the leaked lactate dehydrogenase (LDH) into the culture supernatant (LDH Cytotoxicity Detection Roche Applied Sciences, Germany). The leaked LDH is directly proportional to the cell damage done by the cytotoxic compounds. In brief, cells were treated with test compounds at various concentrations and incubated for 48 h. Vehicle control culture wells received only a maximum of 0.5% DMSO. The cell free culture supernatants were mixed with catalyst and dye solution and allowed to incubate for 15 min at room temperature. Finally, the reaction was stopped and the optical density was measured at 492 nm in a microplate reader (BioRad, USA). […]
(§4) Comparative cytotoxicity potential of DTIC and Compound 6 on B16F0 mouse melanoma cells and A375 human melanoma cells were further evaluated by measuring the leaked lactate dehydrogenase (LDH) into the culture supernatant (LDH Cytotoxicity Detection Kit^Plus, Roche Applied Sciences, Germany), following the methodology described earlier (Example 20). […]

[3] = tested on: B16F0 mouse melanoma cells; assay: MTT cell proliferation assay in B16F0 cells; assay type: cell-based; details: B16F0, 72 h, 3 days, read-out: 50% of inhibitory concentration, IC50 in B16 F0 cells
Method: as §1, with “Thereafter, 0.5 mg/ml of MTT reagent was added to each well and the microplate was incubated further for 4 h at 37° C. in presence of 5% CO2. Finally, the cells were solubilized by adding solubilizing solution and allowed to incubate at 37° C. overnight.” left out, “The results (mean OD±SD) obtained from quadruplicate wells were used in calculation to determine the inhibition of cell proliferation (50% inhibitory concentration, IC50) of the test compounds.” left out
The comparative anti-tumor growth potential of DTIC and Compound 6 was further tested in B16F0 mouse melanoma cells and A375 human melanoma cells by using MTT based cell proliferation assay following the methodology described earlier (Example 19). […] After adding the MTT reagent, the cells were solubilized and the intracellular formazan formation was calorimetrically read at 540 nm in a microplate reader (BioRad, USA). […]

B16F0 cells = assay: B16 F0 mouse melanoma cell colony formation assay; assay type: cell-based; details: B16F0, 192 h, 8 days, read-out: B16 colony growth inhibition; for inhibition at 100 µg/mL: 100 μg/ml
Method: Clone formation efficiency of the Compound 6 and DTIC was tested by following the procedure described earlier with some modifications (41). Briefly, B16F0 cells were harvested and seeded into 6-well plates (100 cells/ml). The cells were allowed to grow for 2 days and thereafter, the cells were incubated with DMEM containing either 0.1% DMSO or 100 μg/ml DTIC or 50 μg/ml and 100 μg/ml of Compound 6 for further 8 days. Fresh medium containing test agents was replaced at every 24 h. Finally, the wells were washed three times with PBS and fixed in methanol for 15 min. The cells were stained with Giemsa stain and observed under microscope. The image of the stained wells were captured digitally (Kodak Image Station 4000MM, Carestream Health Inc., New Haven, Conn.) and number of colonies were counted and analyzed by using NIH Image J software.

[4] = tested on: DU145 human prostate tumor cells; assay: MTT cell proliferation assay in DU145 cells; assay type: cell-based; details: DU-145, read-out: 50% of inhibitory concentration, IC50 DU145
Method: as §1, §2

[5] = tested on: B16F0 mouse melanoma cells; assay: LDH leakage cytotoxicity assay in B16F0 cells; assay type: cell-based; details: treatment concentration 100 μg/ml
Method: as §3, §4

Row | SMILES | anti-tumor activity (B16 F0 melanoma; daily intra-peritoneal, fourteen days, tumor weight) | dose response of tumor growth inhibition (B16 F0 melanoma) | IC50 [1] | % increase in LDH secretion with respect to vehicle treated control in A375 cells [2] | IC50 [3] | inhibition at 50 µg/mL (B16F0 cells; 50 μg/ml) | inhibition at 100 µg/mL (B16F0 cells) | IC50 [4] | % increase in LDH secretion with respect to vehicle treated control in B16 F0 cells [5]
1 | CN(C)/N=N/c1ccsc1C(=O)O [Compound 6, 3-[(dimethylamino)diazenyl]thiophene-2-carboxylic acid] | better anti-tumor activity than DTIC | dose response inhibition at the two dose levels tested | 81.9 µg/mL (≈ 411 µM) | 331% | 57.6 µg/mL (≈ 289 µM) | 55.2% | 68.7% | 62.6 µg/mL (≈ 314 µM) | 61.5%
2 | CN(C)/N=N/c1[nH]cnc1C(N)=O [DTIC, 5-(3,3-dimethyl-1-trizeno)-imidazole-4-carboxamide, reference compound] | – | failed to show statistically significant dose response | 203 µg/mL (≈ 1110 µM) | 246% | 360 µg/mL (≈ 1980 µM) | – | 37.6% | 87.2 µg/mL (≈ 479 µM) | 5.7%

From US8258119B2, “Anti-cancer drugs and uses relating thereto for metastatic malignant melanoma and other cancers” (Kasina Laila Innova Pharmaceuticals, priority 2008, dated 2012)
